Experiments:
[1] = target: T1, recombinant human muscarinic receptor m3 (Homo sapiens, UniProt P20309); assay: Radioligand binding studies, [3H]N-methyl scopolamine, m3; details: CHO cell membranes, [3H]N-methyl scopolamine 0.4 nM; pIC50 converted to pKi by Cheng-Prusoff
T1 construct: expressed in transfected cells; host or cells: Chinese hamster ovary (CHO) cells, membrane preparation
Description: (§1) The compounds of this invention are muscarinic receptor antagonists. The muscarinic receptor affinity of test compounds can be determined by an in vitro receptor binding assay which utilizes a cell membrane preparation from the Chinese hamster ovary cells expressing the recombinant human muscarinic receptors (M1-M5), and is described in more detail in Example 12.
(§2) The inhibitory activity of compounds of this invention in vitro was determined using a modification of the method described in Hegde, S. S. et al. 1997 Br. J. Pharmacol., 120, 1409-1418.
(§3) Cell membranes from Chinese hamster ovary cells expressing the recombinant human muscarinic receptors (m1-m5) were employed. The assays were conducted with the radioligand [^3H]N-methyl scopolamine (0.4 nM, specific activity 84 Ci·mmol^−1) in a final volume of 0.25 mL Tris-Krebs buffer. Non-specific binding was defined with 1 μM atropine. Assays were performed using scintillation proximity assay technology. Competition-displacement curves were generated using 10 concentrations of test compounds and were analyzed by iterative curve fitting to a four parameter logistic equation. pIC50 values (-log of the IC50) were converted to pKi values using the Cheng-Prusoff equation.

[2] = target: T2, recombinant human muscarinic receptor m2 (Homo sapiens, UniProt P08172); assay: Radioligand binding studies, [3H]N-methyl scopolamine, m2; details: CHO cell membranes, [3H]N-methyl scopolamine 0.4 nM; pIC50 converted to pKi by Cheng-Prusoff
T2 construct: expressed in transfected cells; host or cells: Chinese hamster ovary (CHO) cells, membrane preparation
T2 sequence (P08172 1-466): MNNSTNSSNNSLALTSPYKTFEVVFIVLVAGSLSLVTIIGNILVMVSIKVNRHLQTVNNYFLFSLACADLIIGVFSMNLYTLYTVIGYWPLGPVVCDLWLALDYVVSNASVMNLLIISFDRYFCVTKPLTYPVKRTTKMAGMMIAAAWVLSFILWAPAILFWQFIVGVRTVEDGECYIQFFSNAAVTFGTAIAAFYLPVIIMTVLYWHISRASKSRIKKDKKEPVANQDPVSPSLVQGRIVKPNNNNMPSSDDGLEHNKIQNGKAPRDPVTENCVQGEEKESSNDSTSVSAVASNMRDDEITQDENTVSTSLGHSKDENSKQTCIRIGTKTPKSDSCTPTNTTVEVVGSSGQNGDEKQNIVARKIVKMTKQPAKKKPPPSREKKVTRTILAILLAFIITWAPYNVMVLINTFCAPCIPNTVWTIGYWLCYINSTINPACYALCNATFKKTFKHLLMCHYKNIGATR
Description: as §1, §2, §3

T1 sequence (P20309 whole entry): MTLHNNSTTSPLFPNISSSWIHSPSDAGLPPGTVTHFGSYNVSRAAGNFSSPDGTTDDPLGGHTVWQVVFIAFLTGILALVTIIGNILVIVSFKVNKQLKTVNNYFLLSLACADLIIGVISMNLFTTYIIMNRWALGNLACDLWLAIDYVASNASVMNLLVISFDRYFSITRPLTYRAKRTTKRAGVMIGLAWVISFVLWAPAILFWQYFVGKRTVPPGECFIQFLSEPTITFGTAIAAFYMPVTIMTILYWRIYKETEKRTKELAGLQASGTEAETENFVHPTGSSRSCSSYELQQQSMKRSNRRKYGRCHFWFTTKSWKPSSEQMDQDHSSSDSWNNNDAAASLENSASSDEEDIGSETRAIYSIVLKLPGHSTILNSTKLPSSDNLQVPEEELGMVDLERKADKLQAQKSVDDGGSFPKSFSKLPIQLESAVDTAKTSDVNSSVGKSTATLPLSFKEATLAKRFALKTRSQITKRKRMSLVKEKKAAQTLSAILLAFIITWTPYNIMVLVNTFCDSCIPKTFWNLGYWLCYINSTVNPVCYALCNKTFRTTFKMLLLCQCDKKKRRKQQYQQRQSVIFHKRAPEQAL

Row | SMILES | Ki [1] | Ki [2]
1 | CCCN(C1CCN(C(=O)c2ccccc2C)CC1)C1CCc2ccc(OC)cc2C1 (centres unmarked) [Cpd 3, {4-[(7-methoxy-1,2,3,4-tetrahydro-naphthalen-2-yl)-propyl-amino]-piperidin-1-yl}o-tolyl-methanone] | 49 nM | 41.7 nM
2 | CCCN(C1CCN(C(C)=O)CC1)C1CCc2ccc(OC)cc2C1 (centres unmarked) [Cpd 15, 1-{4-[(7-methoxy-1,2,3,4-tetrahydro-naphthalen-2-yl)-propyl-amino]-piperidin-1-yl}ethanone] | 6.76 nM | 4.27 nM
3 | CCCN(C1CCN(C(=O)c2ccco2)CC1)C1CCc2ccc(OC)cc2C1 (centres unmarked) [Cpd 4, furan-2-yl-{4-[(7-methoxy-1,2,3,4-tetrahydro-naphthalen-2-yl)-propyl-amino]-piperidin-1-yl}-methanone] | 51.3 nM | 26.3 nM
4 | CCCN(C1CCN(C(=O)N2CCOCC2)CC1)C1CCc2ccc(OC)cc2C1 (centres unmarked) [Cpd 1, {4-[(7-methoxy-1,2,3,4-tetrahydro-naphthalen-2-yl)-propyl-amino]-piperidin-1-yl}-morpholin-4-yl-methanone] | 1.48 nM | 2.69 nM
5 | CCCN(C1CCN(C(=O)N(CC)CC)CC1)C1CCc2ccc(OC)cc2C1 (centres unmarked) [Cpd 5, 4-[(7-methoxy-1,2,3,4-tetrahydro-naphthalen-2-yl)-propyl-amino]-piperidine-1-carboxylic acid diethylamide] | 5.89 nM | 3.16 nM

Further lines, results first:

Row | Ki [1] | Ki [2] | SMILES
6 | 1.58 nM | 0.977 nM | CCCN(C1CCN(C(=O)N2CCNCC2)CC1)C1CCc2ccc(OC)cc2C1 (centres unmarked) [Cpd 16, {4-[(7-methoxy-1,2,3,4-tetrahydro-naphthalen-2-yl)-propyl-amino]-piperidin-1-yl}-piperazin-1-yl-methanone]
7 | 0.891 nM | 1.82 nM | CCCN(C1CCN(C(=O)C2CCNCC2)CC1)C1CCc2ccc(Br)cc2C1 (centres unmarked) [Cpd 35, {4-[(7-bromo-1,2,3,4-tetrahydro-naphthalen-2-yl)-propyl-amino]-piperidin-1-yl}-piperidin-4-yl-methanone]
8 | 11.5 nM | 5.01 nM | CCCN(C1CCN(C(=O)C2CCNCC2)CC1)C1CCc2cc(OC)c(OC)cc2C1 (centres unmarked) [Cpd 28, {4-[(6,7-dimethoxy-1,2,3,4-tetrahydro-naphthalen-2-yl)-propyl-amino]-piperidin-1-yl}-piperidin-4-yl-methanone]
9 | 0.955 nM | 2.19 nM | CCCN(C1CCN(C(=O)C2CCNCC2)CC1)[C@@H]1CCc2ccc(OC)cc2C1 [Cpd 39, {4-[((R)-7-methoxy-1,2,3,4-tetrahydro-naphthalen-2-yl)-propyl-amino]-piperidin-1-yl}-piperidin-4-yl-methanone]
10 | 2.75 nM | 0.575 nM | CCCN(C1CCN(C(=O)N2CCN(C)CC2)CC1)C1CCc2ccc(OC)cc2C1 (centres unmarked) [Cpd 23, {4-[(7-methoxy-1,2,3,4-tetrahydro-naphthalen-2-yl)-propyl-amino]-piperidin-1-yl}-(4-methyl-piperazin-1-yl)-methanone]

— US6806278B2, “Amino-tetralin derivatives as muscarinic receptor antagonists” (Syntex (U.S.A.) LLC, priority 2001, dated 2004)
